“Also recorded” adds a separate entry of the source.
Columns and labels:
[1] = system: non-homologous end-joining (NHEJ) of DNA by PC-C (Ku70/80, DNA-PKcs, XRCC4, DNA ligase IV); experiment: DNA end-joining (NHEJ) complementation assay with HeLa fraction PC-C; format: biochemical, human; conditions: for ability to stimulate DNA end-joining (NHEJ) by PC-C: FIG. 4C, 6A, 8; for concentration that saturates the NHEJ system / Kd: components derived from humans; for Kd: crude estimate, read-out: estimate of the Kd in the NHEJ system; for stimulation of NHEJ by PC-C relative to IP6: FIG. 8
Method: Fraction PC-C was dialyzed for 2 hours against L buffer (20 mM Tris-HCl pH 8.0, 25 mM KOAc, 0.5 mM EDTA, 10% glycerol, 1 mM DTT) and stored at −80° C.
End joining reactions (10 μl) were carried out in 50 mM HEPES pH 8.0, 40 mM KOAc, 0.5 mM Mg(OAc)2, 1 mM ATP, 1 mM DTT, 0.1 mg/ml BSA, contained 2-3 μl (3-5 μg) of PC-C and HindIII-linearized 5′-^32P-labeled pDEA7Z DNA (10 ng). Incubation was for 1 hour at 37° C. ^32P-labeled DNA products were deproteinized and analyzed by electrophoresis through 0.6% agarose gels followed by autoradiography. Quantification of joining efficiency was carried out by phosphorimaging and the data are presented as (% total ends-joinedsample)−(% total ends-joinedPC-C) unless otherwise stated. For assays of inositol phosphates, aqueous solutions were added directly to the end-joining reactions. For the screening of column fractions; 0.5-1 μl of diluted (in L buffer) or undiluted column fractions were added

[2] = target: T1, DNA-PKcs (Homo sapiens, UniProt P78527); experiment: Gel filtration binding with purified DNA-PKcs; conditions: absence of DNA, FIG. 10-11
T1 construct: made in house
Method: (§1) Superdex 200 gel filtration, 50 μl fractions, scint. counting 20 μl/fraction 100 nM ^3H-IP6, 100 nM Ku, 100 nM DNA ([…]), 100 nM PKcs. Running buffer. 50 mM HEPES, pH 8.0, 40 mM KOAc, 10% Glycerol, 0.1 M KCl, 1 mM DTT.
(§2) Ku 70/80 and DNA-PKcs were purified to homogeneity and used to examine the binding of IP6 by DNA-PK ^3H-IP6 was used in these binding experiments and the curves presented in FIG. 10 represent the distribution of ^3H-IP6 along a gel filtration column under various conditions. ^3H-IP6 observed in a peak below 17 kD represents unbound ^3H-IP6. In the presence of purified Ku 70/80 (±DNA-PKcs) ^3H-IP6 elutes early from the column near the 150 MW point. […] It is believed that DNA-PK assembles on DNA and that in the absence of DNA that Ku and DNA-PKcs, are separate in solution. The addition of DNA to the Ku-^3H-IP6 complex results in a shift in the elution profile from the gel filtration column—the peak is broader (possibly owing to the mobility of the DNA) and has an earlier start point. […] Finally, the addition of DNA-PKcs, to the Ku-IP6DNA complex results in an additional increase in mobility along the gel filtration column. The species appears very large—near 670 kD—which is consistent with it containing Ku 70/80, ^3H-IP6, DNA-PKcs and DNA.

[3] = target: T2, DNA-PK (Homo sapiens, UniProt P12956+P13010); experiment: Gel filtration analysis of 3H-inositol phosphate binding by DNA-PK; conditions: for binding by DNA-PK: gel filtration, 100 nM 3H-ligand, FIG. 7
T2 construct: purchased Promega
Method: Binding reactions (55 μl) were carried out in 25 mM HEPES pH 7.5, 50 mM KCl, 10 mM MgCl2, 1 mM DTT, 10% glycerol, 0.1% NP-40 with 5000 units of DNA-PK (Promega) or 1.8 mg/ml of protein size standards for gel filtration (BioRad) and 100 nM ^3H-IP6 or ^3H-IP3 at 4° C. for 30 min. Complexes were resolved on a Superose 12 PC3.2/30 column run in 50 mM HEPES pH 8.0, […], 0.1M KCl, 10% glycerol, 1 mM DTT at 40 μl/min. 50 μl fractions were collected; 20 μl samples of each fraction were used for ^3H scintilation counting (10 min/sample in 5 ml EcoscintA) and 10 μl were assayed for DNA-PK kinase activity using the SignaTECT DNA-PK assay system (Promega).
The specificity of IP6 recognition by DNA-PK was assessed by competition trials using inositol hexasulphate (IS6). […] Addition of DNA-PK results in an increase in the mobility of the ^3H-IP6 indicating complex formation. IS6, presented in 10- and 100-fold molar excess have no effect on the amount of ^3H-IP6 bound by DNA-PK.

[4] = target: T3, T4 DNA ligase (Enterobacteria phage T4, UniProt P00970); experiment: T4 DNA ligation assay; format: biochemical; conditions: 2 μM IP6, T4 DNA ligase 0.1 u/μl, FIG. 6B
T3 construct: purchased NEB
T3 sequence (P00970 1-487): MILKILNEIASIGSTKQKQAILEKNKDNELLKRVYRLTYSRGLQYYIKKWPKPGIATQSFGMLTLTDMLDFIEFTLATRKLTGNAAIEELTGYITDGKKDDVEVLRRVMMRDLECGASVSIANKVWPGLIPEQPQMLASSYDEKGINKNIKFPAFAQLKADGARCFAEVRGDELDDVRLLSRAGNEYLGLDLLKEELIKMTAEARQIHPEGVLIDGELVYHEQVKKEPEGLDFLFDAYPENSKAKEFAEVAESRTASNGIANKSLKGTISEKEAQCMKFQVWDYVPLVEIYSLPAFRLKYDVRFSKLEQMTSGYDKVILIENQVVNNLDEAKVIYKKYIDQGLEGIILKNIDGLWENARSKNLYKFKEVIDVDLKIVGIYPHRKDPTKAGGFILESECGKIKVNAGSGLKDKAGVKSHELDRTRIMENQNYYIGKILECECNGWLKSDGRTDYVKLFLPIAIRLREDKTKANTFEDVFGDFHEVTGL
Method: Reactions (10 μl) containing T4 DNA ligase (NEB) were carried out in 1×T4 DNA ligase buffer (NEB) at 25° C. in the presence and absence of inositol phosphates. Reactions were stopped, deproteinized and the products analyzed by agarose gel electrophoresis.

[5] = system: skin cancer development; conditions: mice, given orally; cited from earlier work
[6] = system: phosphatases; conditions: cited from earlier work
[7] = target: T4, Ku 70/80 heterodimer (Homo sapiens, UniProt P12956+P13010); experiment: Gel filtration binding and competition analysis with purified Ku 70/80; conditions: for binding by Ku 70/80 heterodimer: gel filtration, FIG. 10-12; for loss in 3H-IP6 binding by Ku (competition): one molar equivalent of competitor
T4 construct: made in house
Method: as §1, §2
The specificity of IP6 binding by Ku was examined by competition analysis (FIG. 13) using IP3, IP6 and IP7. […] These findings may be extended to postulate that while IP6 is bound by Ku, that the stimulatory effect of IP6 on NHEJ probably results from additional interactions that may be regulated by formation of the IP6-Ku complex.

T4 sequence (P12956 whole entry): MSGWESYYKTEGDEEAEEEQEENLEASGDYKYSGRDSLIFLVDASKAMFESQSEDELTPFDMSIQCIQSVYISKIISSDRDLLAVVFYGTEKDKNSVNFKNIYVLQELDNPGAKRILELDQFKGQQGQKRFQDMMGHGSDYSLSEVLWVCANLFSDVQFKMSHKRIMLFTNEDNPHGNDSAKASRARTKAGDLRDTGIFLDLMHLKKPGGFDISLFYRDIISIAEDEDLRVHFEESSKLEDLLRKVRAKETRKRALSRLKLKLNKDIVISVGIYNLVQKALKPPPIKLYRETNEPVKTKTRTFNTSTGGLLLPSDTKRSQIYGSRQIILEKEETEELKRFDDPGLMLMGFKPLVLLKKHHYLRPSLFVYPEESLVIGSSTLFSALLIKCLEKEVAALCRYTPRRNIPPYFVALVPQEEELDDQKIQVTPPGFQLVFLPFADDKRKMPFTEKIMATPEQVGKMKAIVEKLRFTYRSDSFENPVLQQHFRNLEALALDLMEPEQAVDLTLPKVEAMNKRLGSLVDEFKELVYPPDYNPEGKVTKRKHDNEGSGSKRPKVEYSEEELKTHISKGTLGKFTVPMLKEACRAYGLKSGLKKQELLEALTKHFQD
T4 sequence (P13010 whole entry): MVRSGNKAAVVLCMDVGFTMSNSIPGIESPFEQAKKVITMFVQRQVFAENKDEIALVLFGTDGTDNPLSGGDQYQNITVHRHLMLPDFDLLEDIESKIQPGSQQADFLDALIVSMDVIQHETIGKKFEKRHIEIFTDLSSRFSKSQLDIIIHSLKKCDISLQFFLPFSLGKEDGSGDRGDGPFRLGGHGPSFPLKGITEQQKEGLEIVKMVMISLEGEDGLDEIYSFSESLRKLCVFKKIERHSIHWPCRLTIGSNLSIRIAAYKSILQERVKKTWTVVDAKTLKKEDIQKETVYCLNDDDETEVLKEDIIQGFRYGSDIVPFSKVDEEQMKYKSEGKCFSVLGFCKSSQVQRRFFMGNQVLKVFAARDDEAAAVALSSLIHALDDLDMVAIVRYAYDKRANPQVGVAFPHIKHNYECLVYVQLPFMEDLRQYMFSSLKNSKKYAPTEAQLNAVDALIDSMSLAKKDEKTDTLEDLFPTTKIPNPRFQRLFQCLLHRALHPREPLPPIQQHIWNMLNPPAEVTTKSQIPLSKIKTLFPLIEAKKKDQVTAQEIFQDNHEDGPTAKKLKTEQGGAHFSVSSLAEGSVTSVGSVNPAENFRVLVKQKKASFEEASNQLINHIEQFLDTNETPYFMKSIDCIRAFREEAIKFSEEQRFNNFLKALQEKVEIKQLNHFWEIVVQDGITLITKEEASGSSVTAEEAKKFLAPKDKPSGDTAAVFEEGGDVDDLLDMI
T2 sequence (P12956 2-609 limits assumed): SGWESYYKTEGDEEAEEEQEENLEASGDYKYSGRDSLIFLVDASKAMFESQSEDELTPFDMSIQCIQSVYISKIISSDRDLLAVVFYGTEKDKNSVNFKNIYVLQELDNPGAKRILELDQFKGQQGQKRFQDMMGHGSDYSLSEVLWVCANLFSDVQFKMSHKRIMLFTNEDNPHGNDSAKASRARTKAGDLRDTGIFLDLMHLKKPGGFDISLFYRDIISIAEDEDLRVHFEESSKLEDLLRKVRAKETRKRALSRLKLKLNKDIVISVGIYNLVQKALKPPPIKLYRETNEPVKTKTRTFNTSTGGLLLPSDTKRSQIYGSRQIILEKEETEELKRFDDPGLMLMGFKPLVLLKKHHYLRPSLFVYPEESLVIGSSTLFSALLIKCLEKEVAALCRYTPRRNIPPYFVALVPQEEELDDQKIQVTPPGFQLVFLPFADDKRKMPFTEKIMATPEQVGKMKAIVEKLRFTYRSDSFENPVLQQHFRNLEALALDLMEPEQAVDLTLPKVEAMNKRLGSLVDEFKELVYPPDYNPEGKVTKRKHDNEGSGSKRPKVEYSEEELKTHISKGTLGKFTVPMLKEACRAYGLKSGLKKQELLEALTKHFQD
T2 sequence (P13010 2-732 limits assumed): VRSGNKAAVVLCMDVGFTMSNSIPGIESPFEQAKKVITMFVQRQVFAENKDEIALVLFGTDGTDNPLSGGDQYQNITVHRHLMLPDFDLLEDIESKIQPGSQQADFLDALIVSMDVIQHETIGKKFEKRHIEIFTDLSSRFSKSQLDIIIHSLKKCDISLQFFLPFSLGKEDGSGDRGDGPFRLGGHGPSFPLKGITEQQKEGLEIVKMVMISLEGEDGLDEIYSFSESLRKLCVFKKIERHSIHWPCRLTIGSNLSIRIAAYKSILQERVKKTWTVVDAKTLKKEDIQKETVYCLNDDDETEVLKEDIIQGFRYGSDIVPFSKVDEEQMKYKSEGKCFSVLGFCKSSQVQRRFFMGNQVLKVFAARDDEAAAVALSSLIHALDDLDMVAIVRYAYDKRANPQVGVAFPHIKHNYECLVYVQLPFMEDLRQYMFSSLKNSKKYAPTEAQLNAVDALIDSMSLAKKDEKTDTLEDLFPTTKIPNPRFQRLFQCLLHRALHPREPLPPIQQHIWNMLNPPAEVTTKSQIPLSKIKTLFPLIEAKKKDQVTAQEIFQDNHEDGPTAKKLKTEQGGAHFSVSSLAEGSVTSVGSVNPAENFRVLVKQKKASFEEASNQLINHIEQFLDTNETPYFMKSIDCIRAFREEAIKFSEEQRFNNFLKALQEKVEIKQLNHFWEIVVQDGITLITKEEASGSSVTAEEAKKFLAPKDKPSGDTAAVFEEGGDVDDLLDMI

**Q.** For `O=P(O)(O)OC1[C@H](O)[C@H](OP(=O)(O)O)C(OP(=O)(O)O)[C@H](OP(=O)(O)O)[C@H]1O` (stereo partly drawn) [IP4, D-myo-inositol 1,3,4,5-tetrakisphosphate], which “ability to stimulate DNA end-joining (NHEJ) by PC-C” value (“ability” for short) [1] is on record?
**A.** The value was “able to stimulate end-joining, but the efficiency of this stimulation was reduced relative to IP6; also recorded: able to stimulate end-joining, though to a lesser extent; also recorded: stimulate NHEJ of DNA”.

**Q.** Which “ability” value [1] does the source give for `O=P(O)(O)O[C@@H]1[C@@H](OP(=O)(O)O)[C@H](OP(=O)(O)O)[C@H](O)[C@H](OP(=O)(O)O)[C@H]1OP(=O)(O)O` [IP5, myo-inositol 1,3,4,5,6-pentakisphosphate] here?
**A.** Its value is “able to stimulate end-joining, but the efficiency of this stimulation was reduced relative to IP6; also recorded: able to stimulate end-joining, though to a lesser extent; also recorded: stimulate NHEJ of DNA”.

**Q.** What does the source list for `O=P(O)(O)OC1C(OP(=O)(O)O)C(OP(=O)(O)O)C(OP(=O)(O)O)C(OP(=O)(O)O)C1OP(=O)(O)O` (stereo not drawn) [IP6, myo-inositol 1,2,3,4,5,6-hexakisphosphate]?
**A.** interaction with DNA-PKcs [2]: does not interact; low concentration at which end-joining can be stimulated (discussion) [1]: 100 µM; concentration of maximal stimulation of end-joining by PC-C ([1]; FIG. 4B): 1 µM; concentration at which end-joining by PC-C is stimulated ([1]; FIG. 4B, commercially available IP6): ~100 nM; ability to stimulate DNA end-joining (NHEJ) by PC-C [1]: most effective inositol phosphate compound of those tested; also recorded: stimulated end-joining by PC-C; also recorded: stimulate NHEJ of DNA; concentration that saturates the NHEJ system [1]: 10 µM; Kd [1]: ~1 µM; binding by DNA-PK [3]: capable of binding; also recorded: binds; effect on efficiency of ligation by T4 DNA ligase [4]: unaffected; also recorded: no effect; effect on skin cancer development [5]: reduces initiation of skin cancer development but not its promotion; concentration at which it functions as a phosphatase inhibitor [6]: ≥ 10 µM; binding by Ku 70/80 heterodimer [7]: bind; binding by Ku 70/80 heterodimer ([7]; listed as 3H-IP6): binds; loss in 3H-IP6 binding by Ku (competition) ([7]; FIG. 13): ~50%

**Q.** With `O=P(O)(O)O[C@H]1[C@@H](OP(=O)(O)O)[C@H](OP(=O)(O)O)[C@@H](OP(=O)(O)OP(=O)(O)O)[C@H](OP(=O)(O)O)[C@H]1OP(=O)(O)O` [IP7 pp5, myo-5-diphosphoinositol 1,2,3,4,6-pentakisphosphate] as the molecule, how does the “ability” value [1] read?
**A.** The value was “do stimulate NHEJ by PC-C”.

**Q.** What about the “stimulation of NHEJ by PC-C relative to IP6” value [1] of the same molecule?
**A.** Its value is “approximately 10 fold”.

**Q.** What does the source list for `O=P(O)(O)OC1[C@@H](OP(=O)(O)O)[C@H](OP(=O)(O)O)C(OP(=O)(O)OP(=O)(O)O)[C@H](OP(=O)(O)O)[C@H]1OP(=O)(O)O` (stereo partly drawn) [IP7, diphosphoinositol pentakisphosphate]?
**A.** stimulation of NHEJ by PC-C relative to IP6 [1]: 10 fold; concentration that saturates the NHEJ system [1]: 1 µM; Kd [1]: ~100 µM; binding by DNA-PK [3]: binds; binding by Ku 70/80 heterodimer [7]: bind; loss in 3H-IP6 binding by Ku (competition) ([7]; FIG. 13): ~50%

**Q.** For `O=P(O)(O)O[C@H]1[C@@H](OP(=O)(O)O)[C@@H](OP(=O)(O)O)[C@H](OP(=O)(O)OP(=O)(O)O)[C@@H](OP(=O)(O)O)[C@@H]1OP(=O)(O)O` [IP7-pp6, myo-6-diphosphoinositol 1,2,3,4,5-pentakisphosphate], which “ability” value [1] is on record?
**A.** The value was “do stimulate NHEJ by PC-C”.

**Q.** And the “stimulation of NHEJ by PC-C relative to IP6” value [1]?
**A.** The value was “approximately 10 fold”.

**Q.** What does the source list for `O=S(=O)(O)OC1C(OS(=O)(=O)O)C(OS(=O)(=O)O)C(OS(=O)(=O)O)C(OS(=O)(=O)O)C1OS(=O)(=O)O` (stereo not drawn) [IS6, inositol hexasulphate]?
**A.** ability to stimulate DNA end-joining (NHEJ) by PC-C [1]: unable to stimulate end-joining; effect on the amount of 3H-IP6 bound by DNA-PK (competition) ([3]; 10- and 100-fold molar excess, FIG. 9): does not compete; also recorded: no effect

**Q.** Which “ability” value [1] does the source give for myo-inositol 1,4,5-trisphosphate [IP3] here?
**A.** Its value is “inhibitory; also recorded: does not stimulate NHEJ”.

**Q.** And the “ability” value ([1]; listed as myo-inositol 1,4,5-trisphosphate)?
**A.** The value was “inhibit end-joining”.

**Q.** And the “binding by DNA-PK” value [3]?
**A.** The value was “not”.

**Q.** And the “binding by DNA-PK” value ([3]; listed as 3H-IP3)?
**A.** The value was “not altered by the presence of DNA-PK”.

**Q.** What about the “effect on 3H-IP6 binding by Ku (competition)” value ([7]; 3-fold molar excess of competitor, FIG. 13) of the same molecule?
**A.** Its value is “no effect”.

— patent US20040029130A1, “Drug screening systems and assays” (priority 2000, published 2004)
